Assay results reported in the supplement of paper PMC10331698.
± gives the standard deviation of the averaged measurements.

Columns and labels:
Assay in all cases: level (log10 ratio to DMSO vehicle control); higher = higher biomarker level / cell amount than vehicle control
[1] = compound: OCCC(F)(F)C(F)(F)C(F)(F)C(F)(F)C(F)(F)C(F)(F)C(F)(F)C(F)(F)F [8:2 Fluorotelomer alcohol]; conditions: 6700 nM; in DMSO
Experimental: (§1)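 BioMAP Diversity Plus panel of 12 human primary cell co-culture systems (3C, 4H, LPS, SAg, BT, BF4T, BE3C, CASM3C, HDF3CGF, KF3CT, MyoF, Mphg). Compounds were added 1 h before stimulation and left for 24 h (MyoF 48 h; BT 72 h for soluble read-outs or 6 d for IgG). Biomarkers were read by ELISA, cytotoxicity by SRB, PBMC viability and proliferation by Alamar Blue. Each well value was divided by the mean of 8 DMSO control wells on the same plate and log10 transformed; duplicate blinded samples were tested at 4 concentrations.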

[2] = compound: OCCCCC(F)(F)C(F)(F)C(F)(F)C(F)(F)F [4:4 Fluorotelomer alcohol]; conditions: in DMSO
Experimental: as §1

[3] = compound: O=S(=O)(OCC(F)(F)F)C(F)(F)C(F)(F)C(F)(F)C(F)(F)F [2,2,2-Trifluoroethyl perfluorobutanesulfonate]; conditions: in DMSO
Experimental: as §1

[4] = compound: C=C(C)C(=O)OCC(F)(F)C(F)(F)C(F)(F)F [2,2,3,3,4,4,4-Heptafluorobutyl methacrylate]; conditions: in DMSO
Experimental: as §1

[5] = compound: O=C(Cl)C(F)(F)C(F)(F)C(F)(F)C(=O)Cl [Hexafluoroglutaryl chloride]; conditions: in DMSO
Experimental: as §1

[6] = compound: C=CC(=O)OCCC(F)(F)C(F)(F)C(F)(F)C(F)(F)C(F)(F)C(F)(F)C(F)(F)C(F)(F)F [8:2 Fluorotelomer acrylate]; conditions: in DMSO
Experimental: as §1

[7] = compound: O=P(O)(O)CCC(F)(F)C(F)(F)C(F)(F)C(F)(F)C(F)(F)C(F)(F)F [2-(Perfluorohexyl)ethylphosphonic acid]; conditions: in DMSO
Experimental: as §1

Row | Test System | level (log10) [1] | level (log10) ([2]; 6700 nM) | level (log10) ([2]; 20000 nM) | level (log10) ([2]; 60000 nM) | level (log10) ([3]; 6700 nM) | level (log10) ([3]; 20000 nM) | level (log10) ([3]; 60000 nM) | level (log10) ([4]; 6700 nM) | level (log10) ([4]; 20000 nM) | level (log10) ([4]; 60000 nM) | level (log10) ([5]; 6700 nM) | level (log10) ([5]; 20000 nM) | level (log10) ([5]; 60000 nM) | level (log10) ([6]; 6700 nM) | level (log10) ([6]; 20000 nM) | level (log10) ([6]; 60000 nM) | level (log10) ([7]; 6700 nM) | level (log10) ([7]; 20000 nM) | level (log10) ([7]; 60000 nM)
1 | 3C:SRB | -0.014 ± 0.0099 | -0.0075 ± 0.025 | 0.004 ± 0.025 | 0.0095 ± 0.032 | -0.0135 ± 0.0021 | -0.014 ± 0.0028 | -0.0295 ± 0.012 | -0.0125 ± 0.0021 | -0.001 ± 0.0057 | 0.0035 ± 0.00071 | -0.0025 ± 0.0035 | 0.008 ± 0.013 | 0.013 ± 0.0071 | -0.001 ± 0.03 | 0.008 ± 0.018 | 0.0075 ± 0.005 | 0.0015 ± 0.032 | 0.0085 ± 0.015 | -0.006 ± 0.028
2 | SAg:CD62E/E-Selectin | -0.012 | -0.001 ± 0.0014 | -0.01 ± 0.0071 | -0.014 ± 0.028 | -0.0065 ± 0.015 | 0.006 ± 0.018 | 0.03 ± 0.013 | 0.0045 ± 0.039 | -0.0225 ± 0.011 | 0.0015 ± 0.019 | -0.018 ± 0.03 | -0.024 ± 0.014 | -0.012 ± 0.0042 | -0.0125 ± 0.00071 | 0.0205 ± 0.03 | -0.009 ± 0.025 | 0.004 ± 0.0042 | 0.0015 ± 0.0021 | 0.0635 ± 0.021
3 | SAg:CD69 | -0.018 ± 0.018 | 0.009 ± 0.0057 | -0.002 ± 0.0028 | 0.001 ± 0.02 | -0.0025 ± 0.0092 | -0.0175 ± 0.025 | -0.049 ± 0.042 | -0.016 ± 0.0099 | -0.0215 ± 0.0021 | -0.009 ± 0.0042 | -0.009 ± 0.021 | -0.02 ± 0.018 | -0.015 ± 0.0028 | -0.01 ± 0.027 | -0.025 ± 0.016 | -0.0295 ± 0.032 | -0.004 ± 0.025 | -0.008 ± 0.02 | 0.009 ± 0.03
4 | LPS:CD40 | -0.068 ± 0.014 | -0.0175 ± 0.063 | -0.0095 ± 0.028 | -0.042 ± 0.027 | -0.014 ± 0.017 | -0.0495 ± 0.0035 | -0.104 ± 0.064 | 0.0015 ± 0.037 | 0.024 ± 0.034 | 0.0525 ± 0.012 | -0.011 ± 0.057 | 0.0315 ± 0.032 | -0.0375 ± 0.063 | -0.008 ± 0.017 | -0.0285 ± 0.036 | -0.031 ± 0.016 | 0.002 ± 0.062 | -0.012 ± 0.018 | 0.0205 ± 0.028
5 | BE3C:CD87/uPAR | -0.023 ± 0.041 | 0.0075 ± 0.03 | -0.025 ± 0.016 | 0.0065 ± 0.033 | -0.048 ± 0.0099 | -0.024 ± 0.018 | -0.0355 ± 0.026 | -0.004 ± 0.0028 | 0.0075 ± 0.015 | 0.017 ± 0.027 | -0.0055 ± 0.0021 | -0.009 ± 0.0028 | 0.011 ± 0.0085 | 0.03 ± 0.041 | 0.027 ± 0.035 | 0.0595 ± 0.049 | -0.035 ± 0.065 | -0.029 ± 0.047 | -0.0125 ± 0.12
6 | SAg:CXCL9/MIG | -0.006 ± 0.0014 | 0.0015 ± 0.0021 | -0.006 ± 0.0071 | 0.0045 ± 0.012 | 0.0035 ± 0.015 | -0.004 ± 0.0014 | 0 ± 0.013 | -0.004 ± 0.03 | 0.002 ± 0.011 | 0.009 ± 0.013 | 0 ± 0.016 | -0.0005 ± 0.011 | 0.013 ± 0.017 | -0.0065 ± 0.0035 | -0.017 ± 0.0014 | 0.009 ± 0.0099 | 0.0025 ± 0.0035 | -0.012 | 0.0005 ± 0.022
7 | BF4T:CD106/VCAM-1 | -0.0905 ± 0.023 | -0.0145 ± 0.0064 | -0.0205 ± 0.018 | 0.0135 ± 0.043 | -0.0135 ± 0.07 | -0.0035 ± 0.074 | -0.049 ± 0.027 | 0.009 ± 0.013 | -0.021 ± 0.011 | -0.0245 ± 0.0035 | -0.0385 ± 0.039 | -0.022 ± 0.058 | -0.058 ± 0.0085 | -0.038 ± 0.0071 | -0.06 ± 0.024 | -0.0235 ± 0.076 | -0.0195 ± 0.03 | -0.0165 ± 0.016 | 0.0055 ± 0.047
8 | BT:sIL-17A | -0.034 ± 0.12 | 0.026 ± 0.12 | -0.003 ± 0.0099 | -0.111 ± 0.061 | 0.053 ± 0.2 | 0.214 ± 0.093 | 0.184 ± 0.1 | -0.0665 ± 0.11 | 0.042 ± 0.065 | 0.0245 ± 0.086 | 0.005 ± 0.098 | -0.049 ± 0.18 | 0.0285 ± 0.13 | 0.0205 ± 0.054 | 0.0765 ± 0.13 | -0.141 ± 0.084 | 0.018 ± 0.11 | -0.07 ± 0.017 | -0.135 ± 0.059
9 | SAg:Proliferation | -0.064 ± 0.028 | -0.026 ± 0.014 | -0.0185 ± 0.0035 | -0.005 ± 0.047 | -0.0055 ± 0.032 | -0.053 ± 0.023 | -0.048 ± 0.018 | -0.042 ± 0.069 | -0.004 ± 0.03 | -0.0045 ± 0.033 | 0.0165 ± 0.026 | 0.0255 ± 0.013 | 0.001 ± 0.013 | 0.0035 ± 0.022 | -0.0625 ± 0.0064 | -0.0055 ± 0.043 | 0.0125 ± 0.0078 | -0.0165 ± 0.019 | -0.036 ± 0.03
10 | BF4T:SRB | -0.0095 ± 0.0035 | -0.0105 ± 0.0092 | -0.0085 ± 0.0064 | -0.002 ± 0.011 | 0.005 ± 0.0042 | 0.002 ± 0.0028 | 0.0055 ± 0.0021 | -0.003 ± 0.0042 | -0.011 ± 0.0071 | 0.0315 ± 0.039 | -0.015 ± 0.0099 | -0.0115 ± 0.0035 | -0.0195 ± 0.0035 | -0.004 ± 0.0028 | -0.011 ± 0.013 | 0.0055 ± 0.0092 | -0.007 ± 0.0042 | -0.011 ± 0.0014 | -0.0055 ± 0.016
11 | BF4T:IL-1alpha | 0.005 | 0.0075 ± 0.013 | -0.0105 ± 0.0035 | -0.001 ± 0.017 | 0.0195 ± 0.023 | 0.0085 ± 0.026 | 0.0075 ± 0.015 | -0.005 ± 0.014 | -0.009 ± 0.0014 | 0.002 ± 0.025 | -0.014 ± 0.04 | -0.015 ± 0.018 | 0.0015 ± 0.0064 | -0.0115 ± 0.013 | -0.0185 ± 0.00071 | 0.015 ± 0.037 | 0.0005 ± 0.015 | -0.014 ± 0.013 | 0.002 ± 0.042
12 | LPS:IL-1alpha | -0.015 ± 0.013 | -0.01 ± 0.04 | -0.021 ± 0.028 | 0.014 ± 0.048 | -0.061 ± 0.079 | -0.104 ± 0.041 | -0.172 ± 0.052 | -0.04 ± 0.0057 | -0.0105 ± 0.011 | 0.042 ± 0.0014 | -0.0955 ± 0.022 | -0.115 ± 0.015 | -0.057 ± 0.027 | 0.021 ± 0.013 | 0.0315 ± 0.052 | 0.0315 ± 0.0078 | 0.0055 ± 0.0092 | -0.026 ± 0.014 | -0.0195 ± 0.087
13 | 4H:CCL26/Eotaxin-3 | 0.017 ± 0.054 | -0.017 ± 0.021 | -0.0345 ± 0.0021 | -0.025 ± 0.011 | 0.0025 ± 0.064 | 0.01 ± 0.054 | -0.0095 ± 0.074 | 0.005 ± 0.02 | 0.0045 ± 0.0078 | -0.0035 ± 0.022 | 0.016 ± 0.017 | 0.021 ± 0.027 | 0.013 ± 0.016 | 0.0235 ± 0.0021 | -0.012 ± 0.018 | 0.01 ± 0.048 | -0.052 ± 0.09 | -0.0765 ± 0.066 | 0 ± 0.018
14 | BT:Secreted IgG | -0.0885 ± 0.088 | 0.01 ± 0.024 | 0.0045 ± 0.021 | -0.0055 ± 0.037 | -0.0615 ± 0.043 | -0.0585 ± 0.016 | -0.162 ± 0.058 | 0.0145 ± 0.036 | 0.029 ± 0.018 | 0.024 ± 0.03 | 0.012 ± 0.024 | 0.0205 ± 0.012 | 0.0115 ± 0.0035 | -0.0205 ± 0.012 | -0.041 ± 0.031 | -0.11 ± 0.13 | 0.0125 ± 0.0021 | 0.002 ± 0.0099 | -0.046 ± 0.047
15 | 3C:CXCL9/MIG | -0.015 ± 0.0071 | 0.0075 ± 0.0035 | -0.01 ± 0.0014 | 0.007 ± 0.0028 | 0.0075 ± 0.043 | 0.0045 ± 0.026 | 0.0025 ± 0.022 | -0.0035 ± 0.005 | 0.002 | 0.0095 ± 0.021 | -0.0035 ± 0.005 | -0.004 ± 0.0014 | 0.002 ± 0.0085 | -0.0135 ± 0.011 | -0.005 ± 0.0042 | 0.01 ± 0.018 | -0.004 ± 0.0071 | -0.003 ± 0.0014 | 0.01 ± 0.025
